Data reported in PubChem BioAssay (NCI).
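Results reflect a 48-hour exposure of cells in 96-well plates to compound at five concentrations. At the GI50, growth is halved. The concentration for full growth arrest is given as TGI.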

Legend:
Test in all cases: growth of human tumour cells (NCI), 48 h
786-0 renal = test system: 786-0 renal
A498 renal = test system: A498 renal
A549 NSCLC = test system: A549 NSCLC
ACHN renal = test system: ACHN renal
BT-549 breast = test system: BT-549 breast
CAKI-1 renal = test system: CAKI-1 renal
CCRF-CEM leukemia = test system: CCRF-CEM leukemia
COLO 205 colon = test system: COLO 205 colon
DU-145 prostate = test system: DU-145 prostate
EKVX NSCLC = test system: EKVX NSCLC
HCC-2998 colon = test system: HCC-2998 colon
HCT-116 colon = test system: HCT-116 colon
HCT-15 colon = test system: HCT-15 colon
HOP-62 NSCLC = test system: HOP-62 NSCLC
HS 578T breast = test system: HS 578T breast
HT29 colon = test system: HT29 colon
IGROV1 ovarian = test system: IGROV1 ovarian
K-562 leukemia = test system: K-562 leukemia
KM12 colon = test system: KM12 colon
M14 melanoma = test system: M14 melanoma
MALME-3M melanoma = test system: MALME-3M melanoma
MCF7 breast = test system: MCF7 breast
MDA-MB-231 breast = test system: MDA-MB-231 breast
MDA-MB-435 = test system: MDA-MB-435
MOLT-4 leukemia = test system: MOLT-4 leukemia
NCI-H226 lung = test system: NCI-H226 lung
NCI-H23 lung = test system: NCI-H23 lung
NCI-H460 lung = test system: NCI-H460 lung
NCI-H522 lung = test system: NCI-H522 lung
NCI/ADR-RES ovarian = test system: NCI/ADR-RES ovarian
OVCAR-3 ovarian = test system: OVCAR-3 ovarian
OVCAR-4 ovarian = test system: OVCAR-4 ovarian
OVCAR-5 ovarian = test system: OVCAR-5 ovarian
OVCAR-8 ovarian = test system: OVCAR-8 ovarian
PC-3 prostate = test system: PC-3 prostate
RPMI-8226 leukemia = test system: RPMI-8226 leukemia
RXF 393 renal = test system: RXF 393 renal
SF-268 CNS = test system: SF-268 CNS
SF-295 CNS = test system: SF-295 CNS
SK-MEL-2 melanoma = test system: SK-MEL-2 melanoma
SK-MEL-28 melanoma = test system: SK-MEL-28 melanoma
SK-MEL-5 melanoma = test system: SK-MEL-5 melanoma
SK-OV-3 ovarian = test system: SK-OV-3 ovarian
SN12C renal = test system: SN12C renal
SNB-19 CNS = test system: SNB-19 CNS
SNB-75 CNS = test system: SNB-75 CNS
SR leukemia = test system: SR leukemia
SW-620 colon = test system: SW-620 colon
T-47D breast = test system: T-47D breast
TK-10 renal = test system: TK-10 renal
U251 CNS = test system: U251 CNS
UACC-257 melanoma = test system: UACC-257 melanoma
UACC-62 melanoma = test system: UACC-62 melanoma
UO-31 renal = test system: UO-31 renal
HL-60(TB) leukemia = test system: HL-60(TB) leukemia
HOP-92 NSCLC = test system: HOP-92 NSCLC
LOX IMVI melanoma = test system: LOX IMVI melanoma
SF-539 CNS = test system: SF-539 CNS

Structure (SMILES): OCCN(CCO)c1ccc2c(-c3ccccc3)cc(N(CCO)CCO)nc2n1
- TGI (786-0 renal): > 100 µM
- TGI (A498 renal): > 100 µM
- TGI (A549 NSCLC): > 100 µM
- TGI (ACHN renal): > 100 µM
- TGI (BT-549 breast): > 100 µM
- TGI (CAKI-1 renal): > 100 µM
- TGI (CCRF-CEM leukemia): > 100 µM
- TGI (COLO 205 colon): > 100 µM
- TGI (DU-145 prostate): > 100 µM
- TGI (EKVX NSCLC): > 100 µM
- TGI (HCC-2998 colon): > 100 µM
- TGI (HCT-116 colon): > 100 µM
- TGI (HCT-15 colon): > 100 µM
- TGI (HOP-62 NSCLC): > 100 µM
- TGI (HS 578T breast): > 100 µM
- TGI (HT29 colon): > 100 µM
- TGI (IGROV1 ovarian): > 100 µM
- TGI (K-562 leukemia): > 100 µM
- TGI (KM12 colon): > 100 µM
- TGI (M14 melanoma): > 100 µM
- TGI (MALME-3M melanoma): > 100 µM
- TGI (MCF7 breast): > 100 µM
- TGI (MDA-MB-231 breast): > 100 µM
- TGI (MDA-MB-435): > 100 µM
- TGI (MOLT-4 leukemia): > 100 µM
- TGI (NCI-H226 lung): > 100 µM
- TGI (NCI-H23 lung): > 100 µM
- TGI (NCI-H460 lung): > 100 µM
- TGI (NCI-H522 lung): > 100 µM
- TGI (NCI/ADR-RES ovarian): > 100 µM
- TGI (OVCAR-3 ovarian): > 100 µM
- TGI (OVCAR-4 ovarian): > 100 µM
- TGI (OVCAR-5 ovarian): > 100 µM
- TGI (OVCAR-8 ovarian): > 100 µM
- TGI (PC-3 prostate): > 100 µM
- TGI (RPMI-8226 leukemia): > 100 µM
- TGI (RXF 393 renal): > 100 µM
- TGI (SF-268 CNS): > 100 µM
- TGI (SF-295 CNS): > 100 µM
- TGI (SK-MEL-2 melanoma): > 100 µM
- TGI (SK-MEL-28 melanoma): > 100 µM
- TGI (SK-MEL-5 melanoma): > 100 µM
- TGI (SK-OV-3 ovarian): > 100 µM
- TGI (SN12C renal): > 100 µM
- TGI (SNB-19 CNS): > 100 µM
- TGI (SNB-75 CNS): > 100 µM
- TGI (SR leukemia): > 100 µM
- TGI (SW-620 colon): > 100 µM
- TGI (T-47D breast): > 100 µM
- TGI (TK-10 renal): > 100 µM
- TGI (U251 CNS): > 100 µM
- TGI (UACC-257 melanoma): > 100 µM
- TGI (UACC-62 melanoma): > 100 µM
- TGI (UO-31 renal): > 100 µM

Structure (SMILES): Cn1c(-c2ccncc2)c(-c2ccc(F)cc2)c2ncccc21
- GI50 (786-0 renal): > 25 µM
- TGI (786-0 renal): > 25 µM
- GI50 (A498 renal): > 14.4 µM
- TGI (A498 renal): > 25 µM
- GI50 (A549 NSCLC): > 25 µM
- TGI (A549 NSCLC): > 25 µM
- GI50 (ACHN renal): 16.4 µM
- TGI (ACHN renal): > 25 µM
- GI50 (BT-549 breast): > 25 µM
- TGI (BT-549 breast): > 25 µM
- GI50 (CAKI-1 renal): > 25 µM
- TGI (CAKI-1 renal): > 25 µM
- GI50 (CCRF-CEM leukemia): > 25 µM
- TGI (CCRF-CEM leukemia): > 25 µM
- GI50 (COLO 205 colon): > 25 µM
- TGI (COLO 205 colon): > 25 µM
- GI50 (DU-145 prostate): > 25 µM
- TGI (DU-145 prostate): > 25 µM
- GI50 (HCC-2998 colon): > 25 µM
- TGI (HCC-2998 colon): > 25 µM
- GI50 (HCT-116 colon): > 25 µM
- TGI (HCT-116 colon): > 25 µM
- GI50 (HCT-15 colon): > 25 µM
- TGI (HCT-15 colon): > 25 µM
- GI50 (HL-60(TB) leukemia): > 25 µM
- TGI (HL-60(TB) leukemia): > 25 µM
- GI50 (HOP-62 NSCLC): > 25 µM
- TGI (HOP-62 NSCLC): > 25 µM
- GI50 (HOP-92 NSCLC): 7.39 µM
- TGI (HOP-92 NSCLC): > 25 µM
- GI50 (HS 578T breast): > 25 µM
- TGI (HS 578T breast): > 25 µM
- GI50 (HT29 colon): > 25 µM
- TGI (HT29 colon): > 25 µM
- GI50 (IGROV1 ovarian): > 23.1 µM
- TGI (IGROV1 ovarian): > 25 µM
- GI50 (K-562 leukemia): > 25 µM
- TGI (K-562 leukemia): > 25 µM
- GI50 (KM12 colon): > 25 µM
- TGI (KM12 colon): > 25 µM
- GI50 (LOX IMVI melanoma): > 25 µM
- TGI (LOX IMVI melanoma): > 25 µM
- GI50 (M14 melanoma): > 25 µM
- TGI (M14 melanoma): > 25 µM
- GI50 (MALME-3M melanoma): > 25 µM
- TGI (MALME-3M melanoma): > 25 µM
- GI50 (MCF7 breast): > 25 µM
- TGI (MCF7 breast): > 25 µM
- GI50 (MDA-MB-231 breast): > 25 µM
- TGI (MDA-MB-231 breast): > 25 µM
- GI50 (MDA-MB-435): > 25 µM
- TGI (MDA-MB-435): > 25 µM
- GI50 (MOLT-4 leukemia): > 25 µM
- TGI (MOLT-4 leukemia): > 25 µM
- GI50 (NCI-H226 lung): > 25 µM
- TGI (NCI-H226 lung): > 25 µM
- GI50 (NCI-H23 lung): > 25 µM
- TGI (NCI-H23 lung): > 25 µM
- GI50 (NCI-H460 lung): > 25 µM
- TGI (NCI-H460 lung): > 25 µM
- GI50 (NCI-H522 lung): > 25 µM
- TGI (NCI-H522 lung): > 25 µM
- GI50 (NCI/ADR-RES ovarian): > 25 µM
- TGI (NCI/ADR-RES ovarian): > 25 µM
- GI50 (OVCAR-3 ovarian): > 25 µM
- TGI (OVCAR-3 ovarian): > 25 µM
- GI50 (OVCAR-4 ovarian): > 25 µM
- TGI (OVCAR-4 ovarian): > 25 µM
- GI50 (OVCAR-5 ovarian): > 25 µM
- TGI (OVCAR-5 ovarian): > 25 µM
- GI50 (OVCAR-8 ovarian): > 25 µM
- TGI (OVCAR-8 ovarian): > 25 µM
- GI50 (PC-3 prostate): > 25 µM
- TGI (PC-3 prostate): > 25 µM
- GI50 (RPMI-8226 leukemia): > 25 µM
- TGI (RPMI-8226 leukemia): > 25 µM
- GI50 (RXF 393 renal): > 25 µM
- TGI (RXF 393 renal): > 25 µM
- GI50 (SF-268 CNS): > 25 µM
- TGI (SF-268 CNS): > 25 µM
- GI50 (SF-295 CNS): > 25 µM
- TGI (SF-295 CNS): > 25 µM
- GI50 (SF-539 CNS): > 25 µM
- TGI (SF-539 CNS): > 25 µM
- GI50 (SK-MEL-2 melanoma): > 25 µM
- TGI (SK-MEL-2 melanoma): > 25 µM
- GI50 (SK-MEL-28 melanoma): > 25 µM
- TGI (SK-MEL-28 melanoma): > 25 µM
- GI50 (SK-MEL-5 melanoma): > 25 µM
- TGI (SK-MEL-5 melanoma): > 25 µM
- GI50 (SK-OV-3 ovarian): > 25 µM
- TGI (SK-OV-3 ovarian): > 25 µM
- GI50 (SN12C renal): > 25 µM
- TGI (SN12C renal): > 25 µM
- GI50 (SNB-19 CNS): > 25 µM
- TGI (SNB-19 CNS): > 25 µM
- GI50 (SNB-75 CNS): > 25 µM
- TGI (SNB-75 CNS): > 25 µM
- GI50 (SR leukemia): > 25 µM
- TGI (SR leukemia): > 25 µM
- GI50 (SW-620 colon): > 25 µM
- TGI (SW-620 colon): > 25 µM
- GI50 (T-47D breast): > 25 µM
- TGI (T-47D breast): > 25 µM
- GI50 (TK-10 renal): 16.4 µM
- TGI (TK-10 renal): > 25 µM
- GI50 (U251 CNS): > 25 µM
- TGI (U251 CNS): > 25 µM
- GI50 (UACC-257 melanoma): > 25 µM
- TGI (UACC-257 melanoma): > 25 µM
- GI50 (UACC-62 melanoma): > 25 µM
- TGI (UACC-62 melanoma): > 25 µM
- GI50 (UO-31 renal): 10.8 µM
- TGI (UO-31 renal): > 25 µM
